Source: PubChem BioAssay AID330 (DTP/NCI, 2004)
“And” between values parts separate entries of the source, which are not always exact repeats. Equal entries are not always repeated. Toxic doses and inconclusive results are not listed. Square brackets hold non-standard residues; d marks the D form. Peptide text beside a SMILES is read from it. * marks the point of attachment. Nle = CCCC[CH](N)C(=O)O; Cbz = O=C(OCc1ccccc1)*

System: P388 leukemia ip, CD2F1 mice, survival T/C
Assay: NCI In Vivo Anticancer Drug Screen. Data for tumor model P388 Leukemia (intraperitoneal) in CD2F1 (CDF1) mice
Details: endpoint: median survival time, higher = longer survival
Outline: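 Mice carrying the transplanted tumor received test compound or vehicle. Survival was recorded in each group, and the value is the treated-group measurement divided by that of the vehicle-treated control group.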

[1] = dose: 50.0 mg/kg/injection, schedule: Q01DX005 (ip), vehicle: saline with Tween-80
[2] = dose: 100.0 mg/kg/injection, schedule: Q01DX005 (ip), vehicle: saline with Tween-80
[3] = dose: 200.0 mg/kg/injection, schedule: Q01DX005 (ip), vehicle: saline with Tween-80
[4] = dose: 50.0 mg/kg/injection, schedule: Q01DX005 (ip), vehicle: saline
[5] = dose: 100.0 mg/kg/injection, schedule: Q01DX005 (ip), vehicle: saline
[6] = dose: 200.0 mg/kg/injection, schedule: Q01DX005 (ip), vehicle: saline
[7] = dose: 12.5 mg/kg/injection, schedule: Q01DX009 (ip), vehicle: saline with Tween-80
[8] = dose: 25.0 mg/kg/injection, schedule: Q01DX009 (ip), vehicle: saline with Tween-80
[9] = dose: 50.0 mg/kg/injection, schedule: Q01DX009 (ip), vehicle: saline with Tween-80
[10] = dose: 100.0 mg/kg/injection, schedule: Q01DX001 (ip), vehicle: saline with Tween-80
[11] = dose: 200.0 mg/kg/injection, schedule: Q01DX001 (ip), vehicle: saline with Tween-80
[12] = dose: 400.0 mg/kg/injection, schedule: Q01DX001 (ip), vehicle: saline with Tween-80
[13] = dose: 20.0 mg/kg/injection, schedule: Q01DX009 (ip), vehicle: saline with Tween-80
[14] = dose: 25.0 mg/kg/injection, schedule: Q01DX005 (ip), vehicle: saline with Tween-80
[15] = dose: 100.0 mg/kg/injection, schedule: Q01DX009 (ip), vehicle: saline with Tween-80
[16] = dose: 200.0 mg/kg/injection, schedule: Q01DX009 (ip), vehicle: saline with Tween-80

`CC(C)N(CCCO)CCCO` was tested, and the T/C (dose: 50.0 mg/kg/injection, schedule: Q01DX009 (ip), vehicle: saline) was 97 % of control, the T/C (dose: 100.0 mg/kg/injection, schedule: Q01DX009 (ip), vehicle: saline) was 93 % of control and the T/C (dose: 200.0 mg/kg/injection, schedule: Q01DX009 (ip), vehicle: saline) was 102 % of control.

`CCCCC(NC(=O)C(Cc1ccccc1)NC(=O)OCc1ccccc1)C(=O)O` (stereo not drawn) (Cbz-Phe-[Nle]-OH; configuration not given here) was tested, and the T/C [1] was 104 % of control, the T/C [2] was 105 % of control and the T/C [3] was 97 % of control.

For `CCCCCC1NC(C)(C)CO1` (configuration not stated), the T/C [4] was 118 % of control, the T/C [5] was 109 % of control and the T/C [6] was 100 % of control.

For `CN(C)c1ccc(/C=C/c2ccnc3c(O)ccc(O)c23)cc1`, the T/C [7] was 91 % of control, the T/C [8] was 94 % of control and the T/C [9] was 92 % of control.

For `O=C1OC2c3ccccc3C(=O)C2(c2ccccc2)O1` (configuration not stated), the T/C [10] was 97 % of control, the T/C [2] was 97 % of control and the T/C [11] was 97 % of control. For the same compound, the T/C [3] was 97 % of control, the T/C [12] was 96 % of control and the T/C (dose: 400.0 mg/kg/injection, schedule: Q01DX005 (ip), vehicle: saline with Tween-80) was 96 % of control.

In the case of `Cn1c2c(c(=O)n(C)c1=O)N1c3c(n(C)c(=O)n(C)c3=O)NN1C(c1ccccc1)=N2`, the T/C [10] is reported as 95 % of control, the T/C [11] is reported as 88 % of control and the T/C [12] is reported as 89 % of control.

`CO/C=C(\C(=O)OC)c1ccccc1` was tested, and the T/C (dose: 50.0 mg/kg/injection, schedule: Q01DX009 (ip), vehicle: Klucel (hydroxypropylcellulose) (HPC)) was 100 % of control, the T/C (dose: 100.0 mg/kg/injection, schedule: Q01DX009 (ip), vehicle: Klucel (hydroxypropylcellulose) (HPC)) was 106 % of control and the T/C (dose: 200.0 mg/kg/injection, schedule: Q01DX009 (ip), vehicle: Klucel (hydroxypropylcellulose) (HPC)) was 106 % of control.

For `COc1cc(OC)c(/C=N/Nc2cc(C)c3ccc(OC)cc3n2)c(OC)c1`, the T/C (dose: 50.0 mg/kg/injection, schedule: Q01DX005 (ip), vehicle: Klucel (hydroxypropylcellulose) (HPC)) was 105 % of control, the T/C (dose: 100.0 mg/kg/injection, schedule: Q01DX005 (ip), vehicle: Klucel (hydroxypropylcellulose) (HPC)) was 113 % of control and the T/C (dose: 200.0 mg/kg/injection, schedule: Q01DX005 (ip), vehicle: Klucel (hydroxypropylcellulose) (HPC)) was 114 % of control.

For `N#CN=[N+]([O-])c1ccc(C(=O)O)cc1`, the T/C (dose: 7.5 mg/kg/injection, schedule: Q04DX003 (ip), vehicle: Klucel (hydroxypropylcellulose) (HPC)) was 97 % of control, the T/C (dose: 7.5 mg/kg/injection, schedule: Q04DX003 (ip), vehicle: saline with Tween-80) was 111 % of control and the T/C (dose: 15.0 mg/kg/injection, schedule: Q04DX003 (ip), vehicle: Klucel (hydroxypropylcellulose) (HPC)) was 105 % of control. For the same compound, the T/C (dose: 15.0 mg/kg/injection, schedule: Q04DX003 (ip), vehicle: saline with Tween-80) was 112 % of control and the T/C (dose: 30.0 mg/kg/injection, schedule: Q04DX003 (ip), vehicle: saline with Tween-80) was 124 % of control.

`CC(=O)C(CSC(=O)c1ccccc1)C(C)=O` was tested, and the T/C (dose: 100.0 mg/kg/injection, schedule: Q04DX002 (ip), vehicle: Klucel (hydroxypropylcellulose) (HPC)) was 100 % of control and the T/C (dose: 200.0 mg/kg/injection, schedule: Q04DX002 (ip), vehicle: Klucel (hydroxypropylcellulose) (HPC)) was 100 % of control.

For `NC(=S)N/N=C/c1c(Cl)nc2n1CCS2`, the T/C (dose: 100.0 mg/kg/injection, schedule: Q01DX001 (ip), vehicle: Klucel (hydroxypropylcellulose) (HPC)) was 94 % of control, the T/C (dose: 200.0 mg/kg/injection, schedule: Q01DX001 (ip), vehicle: Klucel (hydroxypropylcellulose) (HPC)) was 93 % of control and the T/C (dose: 400.0 mg/kg/injection, schedule: Q01DX001 (ip), vehicle: Klucel (hydroxypropylcellulose) (HPC)) was 92 % of control.

For `COc1cc2c(c(O)c1O)C(=O)c1c(O)cc(C)cc1C2=O`, the T/C (dose: 5.0 mg/kg/injection, schedule: Q01DX009 (ip), vehicle: saline with Tween-80) was 108 % of control, the T/C (dose: 10.0 mg/kg/injection, schedule: Q01DX009 (ip), vehicle: saline with Tween-80) was 117 % of control and the T/C [13] was 108 % of control.

For `COC(=O)NC1CC(C2CO2)OC1=O` (configuration not stated), the T/C [4] was 101 % of control, the T/C [5] was 99 % of control and the T/C [6] was 109 % of control.

`Cc1cc2c(cc1NCc1ccccc1)C(C)C(=O)CCC(=O)N2Cc1ccccc1` (configuration not stated) was tested, and the T/C (dose: 12.5 mg/kg/injection, schedule: Q01DX005 (ip), vehicle: saline with Tween-80) was 101 % of control, the T/C [14] was 99 % of control and the T/C [1] was 90 % of control and 94 % of control.

With `CCOC(=O)c1ccc(NC(=S)Nc2ccc(C(=O)OCC)cc2)cc1` the T/C [15] was 90 % of control, the T/C [16] was 90 % of control and the T/C (dose: 400.0 mg/kg/injection, schedule: Q01DX009 (ip), vehicle: saline with Tween-80) was 90 % of control.

For `O=C1/C(=C\c2ccccc2)SC(=S)N1c1cccc(Br)c1`, the T/C [14] was 87 % of control, the T/C [1] was 97 % of control and the T/C [2] was 106 % of control.

For `CC1CN1S(=O)(=O)N1CC1C` (configuration not stated), the T/C (dose: 11.0 mg/kg/injection, schedule: Q04DX003 (ip), vehicle: saline with Tween-80) was 110 % of control, the T/C (dose: 16.5 mg/kg/injection, schedule: Q04DX003 (ip), vehicle: saline with Tween-80) was 155 % of control and the T/C [13] was 209 % of control. For the same compound, the T/C (dose: 25.0 mg/kg/injection, schedule: Q04DX003 (ip), vehicle: saline with Tween-80) was 195 % of control, the T/C (dose: 37.5 mg/kg/injection, schedule: Q04DX003 (ip), vehicle: saline with Tween-80) was 270 % of control and the T/C (dose: 40.0 mg/kg/injection, schedule: Q01DX009 (ip), vehicle: saline with Tween-80) was 172 % of control.

In the case of `COc1ccc(-c2c3ccc(OC)cc3n3ccccc23)cc1`, the T/C (dose: 100.0 mg/kg/injection, schedule: Q01DX002 (ip), vehicle: saline with Tween-80) is reported as 99 % of control, the T/C (dose: 200.0 mg/kg/injection, schedule: Q01DX002 (ip), vehicle: saline with Tween-80) is reported as 97 % of control and the T/C (dose: 400.0 mg/kg/injection, schedule: Q01DX002 (ip), vehicle: saline with Tween-80) is reported as 107 % of control.

With `COc1ccc2c(c1OC)C(C(Cl)(Cl)Cl)N1CCc3cc4c(cc3C1=C2)OCO4` (configuration not stated) the T/C [9] was 93 % of control, the T/C [15] was 90 % of control and the T/C [16] was 92 % of control.

`COc1ccc(C(C)c2cc3c(cc2O)OCO3)cc1` (configuration not stated) was tested, and the T/C (dose: 50.0 mg/kg/injection, schedule: Q01DX005 (ip), vehicle: distilled water + Tween-80) was 105 % of control, the T/C (dose: 100.0 mg/kg/injection, schedule: Q01DX005 (ip), vehicle: distilled water + Tween-80) was 99 % of control and the T/C (dose: 200.0 mg/kg/injection, schedule: Q01DX005 (ip), vehicle: distilled water + Tween-80) was 108 % of control.

With `C=CCc1ccccc1NC(C)C(=O)OCC` (configuration not stated) the T/C [1] was 107 % of control, the T/C [2] was 107 % of control and the T/C [3] was 107 % of control.

`CN(C)CC1CCCC(CN(C)C)C1O` (configuration not stated) was tested, and the T/C [4] was 99 % of control, the T/C [5] was 94 % of control and the T/C [6] was 93 % of control.

With `S=C(S)n1nc(-c2ccccc2)c(N=Nc2cccc(Cl)c2Cl)c1-c1ccccc1` the T/C (dose: 100.0 mg/kg/injection, schedule: Q04DX002 (ip), vehicle: saline with Tween-80) was 93 % of control, the T/C (dose: 200.0 mg/kg/injection, schedule: Q04DX002 (ip), vehicle: saline with Tween-80) was 93 % of control and the T/C (dose: 400.0 mg/kg/injection, schedule: Q04DX002 (ip), vehicle: saline with Tween-80) was 109 % of control.

For `Cc1ccc(Oc2nc(=O)c3c(o2)CC(C)(C)C3)cc1`, the T/C [7] was 106 % of control, the T/C [8] was 106 % of control and 112 % of control and the T/C [9] was 103 % of control and 106 % of control and 114 % of control. For the same compound, the T/C [15] was 120 % of control and 96 % of control.

For `CC(Cl)C(=O)NN=C(c1ccccc1)c1ccccc1` (configuration not stated), the T/C (dose: 42.0 mg/kg/injection, schedule: Q01DX009 (ip), vehicle: saline) was 94 % of control, the T/C (dose: 84.0 mg/kg/injection, schedule: Q01DX009 (ip), vehicle: saline) was 90 % of control and the T/C (dose: 168.0 mg/kg/injection, schedule: Q01DX009 (ip), vehicle: saline) was 105 % of control.

`O=C1CC(C(Cl)(Cl)Cl)O1` (configuration not stated) was tested, and the T/C (dose: 25.0 mg/kg/injection, schedule: Q04DX003 (ip), vehicle: saline) was 97 % of control, the T/C (dose: 50.0 mg/kg/injection, schedule: Q04DX003 (ip), vehicle: saline) was 97 % of control and the T/C (dose: 100.0 mg/kg/injection, schedule: Q04DX003 (ip), vehicle: saline) was 99 % of control. The T/C (dose: 200.0 mg/kg/injection, schedule: Q04DX003 (ip), vehicle: saline) was 99 % of control.
